Reference: patent publication US12195434B2, “Process for the preparation of a chiral prostaglandin enol intermediate and intermediate compounds useful in the process” (EUROAPI HUNGARY LIMITED LIABILITY COMPANY, priority 2019, dated 2025)

Assay: solubility of the PPB-enone isomers in crystallization solvents
Assay type: physicochemical
Procedure: The solubility (g/100 ml) of the PPB-enone isomers in some of the solvents with which crystallization was attempted is shown below: […]

solubility (DIPE, 23° C.) | solubility (DIPE, Reflux) | solubility (EtOH, 23° C.) | solubility (EtOH, Reflux) [g/100 ml] | solubility (MeOH, 23° C.) | solubility (MeOH, Reflux) [g/100 ml] | solubility (TBME, 23° C.) | solubility (TBME, Reflux) [g/100 ml] | solubility (iPrOH, 23° C.) | solubility (iPrOH, Reflux) [g/100 ml] | Structure (SMILES)
insoluble | 0.2 g/100 ml | insoluble | 0.33 | insoluble | 0.33 | insoluble | 0.13 | insoluble | 0.29 | Cc1cccc([C@H](C)C(=O)/C=C/[C@@H]2[C@H]3CC(=O)O[C@H]3C[C@H]2OC(=O)c2ccc(-c3ccccc3)cc2)c1 [16-(S)-PPB-enone, [(3aR,4R,5R,6aS)-4-[(E,4S)-4-(m-tolyl)-3-oxo-pent-1-enyl]-2-oxo-3,3a,4,5,6,6a-hexahydrocyclopenta[b]furan-5-yl] 4-phenylbenzoate]
insoluble | in- | insoluble | 0.77 | insoluble | 0.91 | 0.14 g/100 ml | 0.33 | insoluble | 0.80 | Cc1cccc(C(C)C(=O)/C=C/[C@@H]2[C@H]3CC(=O)O[C@H]3C[C@H]2OC(=O)c2ccc(-c3ccccc3)cc2)c1 (stereo partly drawn) [16-(R,S)-PPB-enone, [(3aR,4R,5R,6aS)-4-[(E)-4-(m-tolyl)-3-oxo-pent-1-enyl]-2-oxo-3,3a,4,5,6,6a-hexahydrocyclopenta[b]furan-5-yl] 4-phenylbenzoate]
in- | in- | 0.43 g/100 ml | 4.00 | 0.45 g/100 ml | 5.00 | 0.71 g/100 ml | 8.00 | 0.18 g/100 ml | 2.22 | Cc1cccc([C@@H](C)C(=O)/C=C/[C@@H]2[C@H]3CC(=O)O[C@H]3C[C@H]2OC(=O)c2ccc(-c3ccccc3)cc2)c1 [16-(R)-PPB-enone, [(3aR,4R,5R,6aS)-4-[(E,4R)-4-(m-tolyl)-3-oxo-pent-1-enyl]-2-oxo-3,3a,4,5,6,6a-hexahydrocyclopenta[b]furan-5-yl] 4-phenylbenzoate]
